# Experimental data reported in patent US6534516B1, “Androgen receptor modulator compounds and methods” (Ligand Pharmaceuticals Incorporated, priority 1996, dated 2003).
# How the values were obtained:
# PR = biological target: T1, PR (Homo sapiens, UniProt P06401); assay: cell-based
# T1 sequence (P06401 1-933): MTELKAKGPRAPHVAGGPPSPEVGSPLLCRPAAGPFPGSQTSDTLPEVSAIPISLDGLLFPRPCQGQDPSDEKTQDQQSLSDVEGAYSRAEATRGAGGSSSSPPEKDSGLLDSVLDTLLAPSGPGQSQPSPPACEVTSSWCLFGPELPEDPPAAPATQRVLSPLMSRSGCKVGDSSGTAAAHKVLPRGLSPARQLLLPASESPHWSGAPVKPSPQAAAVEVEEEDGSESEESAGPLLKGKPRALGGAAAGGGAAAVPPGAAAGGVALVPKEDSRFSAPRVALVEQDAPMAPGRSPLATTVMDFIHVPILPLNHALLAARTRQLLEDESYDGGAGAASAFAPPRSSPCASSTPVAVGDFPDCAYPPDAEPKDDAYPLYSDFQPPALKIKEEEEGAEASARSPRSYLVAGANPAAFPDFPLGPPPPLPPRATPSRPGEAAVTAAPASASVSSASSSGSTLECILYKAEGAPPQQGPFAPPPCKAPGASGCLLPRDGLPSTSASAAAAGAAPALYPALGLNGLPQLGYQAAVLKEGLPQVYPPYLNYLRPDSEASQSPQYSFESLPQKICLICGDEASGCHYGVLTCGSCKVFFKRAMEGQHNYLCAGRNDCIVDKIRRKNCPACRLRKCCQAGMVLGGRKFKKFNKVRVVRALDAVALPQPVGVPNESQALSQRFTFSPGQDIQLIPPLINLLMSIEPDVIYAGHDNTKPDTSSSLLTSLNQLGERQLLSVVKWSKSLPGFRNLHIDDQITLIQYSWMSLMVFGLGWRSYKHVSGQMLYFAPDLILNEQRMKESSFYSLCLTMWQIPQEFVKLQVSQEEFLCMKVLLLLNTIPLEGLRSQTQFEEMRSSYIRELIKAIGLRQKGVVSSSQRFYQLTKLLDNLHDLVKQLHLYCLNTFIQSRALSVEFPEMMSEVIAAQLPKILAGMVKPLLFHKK
# MR = biological target: T2, MR (Homo sapiens, UniProt P08235); assay: Co-transfection assay, cross-reactivity on MR; type: cell-based
# T2 construct: expressed in transfected cells
# T2 sequence (P08235 1-984): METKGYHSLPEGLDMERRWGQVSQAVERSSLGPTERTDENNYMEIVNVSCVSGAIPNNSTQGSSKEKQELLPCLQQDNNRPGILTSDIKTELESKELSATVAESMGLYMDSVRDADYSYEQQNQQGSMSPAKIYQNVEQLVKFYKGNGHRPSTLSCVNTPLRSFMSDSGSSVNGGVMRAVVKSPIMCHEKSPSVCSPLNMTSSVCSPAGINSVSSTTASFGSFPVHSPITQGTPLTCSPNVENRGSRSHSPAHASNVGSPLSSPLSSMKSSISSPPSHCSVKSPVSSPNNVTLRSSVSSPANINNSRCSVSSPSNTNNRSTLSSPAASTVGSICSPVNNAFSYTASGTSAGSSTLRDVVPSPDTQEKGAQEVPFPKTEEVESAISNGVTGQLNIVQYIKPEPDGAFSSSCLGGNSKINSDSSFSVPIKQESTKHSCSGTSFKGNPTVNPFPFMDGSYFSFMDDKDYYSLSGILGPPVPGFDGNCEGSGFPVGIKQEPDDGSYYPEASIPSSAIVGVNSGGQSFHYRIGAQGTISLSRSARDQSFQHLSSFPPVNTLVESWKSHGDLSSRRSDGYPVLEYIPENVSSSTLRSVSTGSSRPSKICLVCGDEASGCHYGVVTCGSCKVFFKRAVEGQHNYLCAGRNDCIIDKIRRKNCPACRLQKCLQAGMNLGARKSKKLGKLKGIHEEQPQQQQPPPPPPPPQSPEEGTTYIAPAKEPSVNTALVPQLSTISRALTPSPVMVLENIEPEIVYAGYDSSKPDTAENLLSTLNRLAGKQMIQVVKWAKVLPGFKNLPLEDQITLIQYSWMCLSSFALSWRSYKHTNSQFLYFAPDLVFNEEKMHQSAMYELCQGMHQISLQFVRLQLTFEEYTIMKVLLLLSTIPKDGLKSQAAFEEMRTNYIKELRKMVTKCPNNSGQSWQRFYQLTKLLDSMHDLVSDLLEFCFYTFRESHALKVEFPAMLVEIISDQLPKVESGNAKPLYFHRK
smiles,measurement,setting,value
"Cn1c(=O)cc(C(F)(F)F)c2cc3c(cc21)N1CCCC1(C)CC3 (racemic) [Compound 103, (R/S)-6,7,7a,11-Tetrahydro-1,7a-dimethyl-4-trifluoromethyl-2-pyridono[5,6-g]pyrrolidino[1,2-a]quinoline]",IC50,PR,5.94 µM
same,IC50,MR,1.59 µM
